Converted amounts (≈) assume the structure as drawn. Where two headings read alike, the source gives them in different places.
Tests used:
[1] = biological target: T1, Cathepsin B (Bos taurus, UniProt P07688); assay: Cathepsin B release of fumagillol analogs from HPMA conjugates; assay type: in vitro ADME; settings: 40 nM Cathepsin B, approximately 2.5 mg/mL test agent, pH 5.5 or 6.8, 37° C., 0-24 hour, LC/MS/MS
T1 construct: purchased Sigma C6286
Method: Cathepsin B (Sigma Cat # C6286 Lot #025K7672) was diluted to a 10× concentration in activation buffer consisting of approximately 400 nM enzyme, 30 mM DTT, 15 mM EDTA and acetate buffer, pH=5.5 for 15 minutes at room temperature.
The HPMA conjugates were made into a 10× stock solution in pH 5.5 buffer. The final reaction was performed by diluting the enzyme and substrate 10 fold into either buffer at pH=5.5 or pH=6.8. The final enzymatic reaction consisted of 40 nM Cathepsin B, approximately 2.5 mg/mL test agent, and buffer at 37° C. The reaction was stopped at 0, 2, 6, and 24 hour. To stop the reaction, 3 volumes of ice-cold methanol containing propranolol internal standard (at 1.0 μM) was added and left on ice. The samples were then analyzed by LC/MS/MS.

[2] = system: A549 cells; assay type: in vitro ADME, human
Method: Cells were treated as in Example 51 except that at the end of 72 hour exposure to test agent, the cells were frozen (−70° C.) and stored for subsequent evaluation by LC/MS.

[3] = system: A549 cells; assay: A549 human non-small cell lung carcinoma cell viability assay (CellTiter-Glo); assay type: cell-based; settings: small molecules, 72 hours exposure
Method: (§1) Test compounds, small molecules or polymer conjugates, were dissolved in dimethyl sulfoxide to a stock concentration of 5 mg/mL. The test agents were then diluted to an intermediate concentration at 200 μg/mL in 10% DMSO. Further dilutions were completed serially 3-fold in 10% DMSO to produce 12 decreasing concentrations for in-vitro analysis. To achieve the target concentrations of the in-vitro assays, […] of the intermediate drug preparation was delivered to the cells (seeded in a volume of 50 μL). The final DMSO concentration for the tests was 0.2% for all doses of test agent.
Cells were exposed to twelve increasing concentrations of formulated test agent from 2×10^−6 to 4.0 μg/mL for 72 hours. Following 72 hour exposure, 25 μL of CellTiter-Glo® Reagent was added to each well. The plates were incubated for 60 minutes at 37° C. in a humidified incubator. After incubation, luminescence was recorded using the Molecular Devices AnalystGT multi-mode reader.
(§2) Data are expressed as the percent cell growth of the untreated (vehicle) control calculated from the luminescence signals. The surviving fraction of cells is determined by dividing the mean luminescence values of the test agents by the mean luminescence values of untreated control. The inhibitory concentration value for the test agent(s) and control were estimated using Prism 5 software (GraphPad Software, Inc.) by curve-fitting the data using the non-linear regression analysis.
The human tumor cell lines A549 and HCT-116 were obtained from American Type Culture Collection (Manassas, Va.). The Human umbilical vein epithelial cells (HUVEC) were obtained from Lonza (Basel, Switzerland). The A549 cells were maintained RPMI 1640 w/L-glut supplemented with 5% FBS. The HCT-116 cells were maintained in McCoy's 5a supplemented with 5% FBS. The HUVEC line was grown in Endothelial Growth Medium with supplements and growth factors (BBE, hydrocortisone, hEGF, FBS and gentamicin/amphotericin-B). All cells were house in an atmosphere of 5% CO2 at 37° C. Cells were dissociated with 0.05% Trypsin and 0.02% EDTA.
The human tumor cell line A549 was obtained from American Type Culture Collection (Manassas, Va.). The A549 cells were maintained RPMI 1640 w/L-glut supplemented with 5% FBS. A549 cells were seeded at 500 cells per well 24 hours prior to test agent exposure in a volume of 50 μL. The cells were housed in an atmosphere of 5% CO2 at 37° C. Cells were dissociated with 0.05% Trypsin and 0.02% EDTA.

[4] = system: HCT-116 cells; assay: HCT-116 human colon tumor cell viability assay (CellTiter-Glo); assay type: cell-based; settings: small molecules, 72 hours exposure
Method: as §1, §2
The human tumor cell lines A549 and HCT-116 were obtained from American Type Culture Collection (Manassas, Va.). The HCT-116 cells were maintained in McCoy's 5a supplemented with 5% FBS. HCT-116 cells were seeded at 500 cells per well 24 hours prior to test agent exposure in a volume of 50 μL. The cells were housed in an atmosphere of 5% CO2 at 37° C. Cells were dissociated with 0.05% Trypsin and 0.02% EDTA.
Cells were exposed to twelve increasing concentrations of formulated test agent from 2.3×10^−6 to 4.02 μg/mL for 72 hours. Following 72 hour exposure, 25 μL of CellTiter-Glo® Reagent was added to each well. The plates were incubated for 60 minutes at 37° C. in a humidified incubator. After incubation, luminescence was recorded using the Molecular Devices AnalystGT multi-mode reader.

[5] = system: HUVEC cells; assay: Human umbilical vein epithelial cell viability assay (CellTiter-Glo); assay type: cell-based; settings: small molecules, 72 hours exposure
Method: as §1, §2
The Human umbilical vein epithelial cells (HUVEC) were obtained from Lonza (Basel, Switzerland). The HUVEC line was grown in Endothelial Growth Medium with supplements and growth factors (BBE, hydrocortisone, hEGF, FBS and gentamicin/amphotericin-B). All cells were housed in an atmosphere of 5% CO2 at 37° C. Cells were dissociated with 0.05% Trypsin and 0.02% EDTA.
HUVEC cells were seeded at 1000 cells per well 24 hours prior to test agent exposure in a volume of […]. Cells were exposed to twelve increasing concentrations of formulated test agent from 2.3×10^−6 to 4.02 μg/mL for 72 hours. Following 72 hour exposure, […] of CellTiter-Glog® Reagent was added to each well. The plates were incubated for 60 minutes at 37° C. in a humidified incubator. After incubation, luminescence was recorded using the Molecular Devices AnalystGT multi-mode reader.

[6] = system: A549 tumor cells vs normal HUVEC cells; assay: A549/HUVEC selectivity (ratio of IC50s); assay type: cell-based, human
[7] = system: B16-F10 tumor cells; assay: In vivo B16-F10 murine melanoma, lung metastases counts; design: species or system C57B16 female mice; settings: 30 mg/kg, qod; sacrificed after 15 days
Method: C57B16 female mice (N=8) were injected (tail vein) with 1×10^5 B16-F10 tumor cells. After one day, mice were treated with polymer conjugates as solutions in saline (IV administration, q4d, four doses except that in one group O-7175 was administered as a single dose on day 1). TNP-470 was used as a positive control, saline as a negative control. Mice were sacrificed after 15 days. Treatment outcomes were assessed by counting lung metastases.

[8] = for T ½: buffer; for Natural Rate Constant: 37° C., 5 μM
Method: At the appropriate time points, a 50 μL sample was withdrawn and diluted with three volumes of methanol containing propranolol as an internal standard (one solution was made for the entire study). The concentration of carbamoylfumagillol in the solution was analyzed by LC/MS/MS over seven days.

[9] = in man; as metabolite of TNP-470; cited from earlier work

poly(HPMA-co-MA-GFLG-NHCH2CH2N(Me)CH2C(O)NHC(O)2-fumagill-6-yl)
products released by Cathepsin B [1]: fumagillol, carbamoylfumagillol, and fumagil-6-yl (2-aminoethyl)methylcarbamate

poly[HPMA-co-MA-GFLG-N-(6-aminohexyl)carbamoylfumagillol]
products released by Cathepsin B [1]: N-(6-aminohexyl)carbamoylfumagillol and fumagil-6-yl {6-[(aminoacetyl)amino]hexyl}carbamate
Metabolites identified from the treated cells [2]: N-(6-aminohexyl)carbamoylfumagillol,fumagill-6-yl {6-[(aminoacetyl)amino]hexyl}carbamate, and the epoxide hydrolysis product, (35′,7aR)-7a-(hydroxymethyl)-4-methoxy-3-methyl-2-(3-methylbut-2-en-1-yl)octahydro-1-benzofuran-3-ol-5-yl 6-aminohexyl carbamate

CO[C@@H]1[C@H](OC(=O)NC(=O)CCl)CC[C@]2(CO2)[C@H]1[C@@]1(C)O[C@@H]1CC=C(C)C [TNP-470, chloroacetylcarbamoylfumagillol]
IC50 ([3]; Homo sapiens, A549): 8.97 ng/mL (≈ 22.3 nM)
IC50 ([4]; Homo sapiens, HCT-116, read-out: HCT116 IC50 Average): 2.64 ng/mL (≈ 6.57 nM)
IC50 ([5]; Homo sapiens, HUVEC): 0.153 ng/mL (≈ 0.381 nM)
A549/HUVEC IC50 ratio [6]: 58.53
Metastases Counts [7]: 39.5

CO[C@@H]1[C@H](OC(N)=O)CC[C@]2(CO2)[C@H]1[C@@]1(C)O[C@@H]1CC=C(C)C [Carbamoylfumagillol]
A549 IC50 Average [3]: 2.89 ng/mL
HCT116 IC50 Average [4]: 1.035 ng/mL
HUVEC IC50 Average [5]: 0.086 ng/mL
T ½ ([8]; pH 4): 5.38 days
T ½ ([8]; pH 5.3): 17 days
T ½ ([8]; pH 6.7): 30.3 days
T ½ ([8]; pH 8): 25.5 days
Natural Rate Constant ([8]; pH 4.0, 10 mM sodium acetate buffer): 0.0054 h⁻¹
Natural Rate Constant ([8]; pH 5.3, 10 mM sodium acetate buffer): 0.0017 h⁻¹
decomposition ([8]; pH 5.3 to 8.0, 37° C., over the seven day period): less than 20%
Natural Rate Constant ([8]; pH 6.7, potassium phosphate buffer): 0.0010 h⁻¹
Natural Rate Constant ([8]; pH 8.0, potassium phosphate buffer): 0.0011 h⁻¹
half-life [9]: 0.00833 days

CO[C@@H]1[C@H](OC(=O)N[C@@H](C(N)=O)C(C)C)CC[C@]2(CO2)[C@H]1[C@@]1(C)O[C@@H]1CC=C(C)C [Compound O-7177]
A549 IC50 Average [3]: 0.215 ng/mL
HCT116 IC50 Average [4]: 0.236 ng/mL
HUVEC IC50 Average [5]: 0.101 ng/mL
A549/HUVEC IC50 ratio [6]: 2.14

poly(HPMA-co-MA-GFLG-N(Me)CH2CH2N(Me)CH2C(O)NHC(O)2-fumagill-6-yl)
products released by Cathepsin B [1]: fumagillol, carbamoylfumagillol, fumagil-6-yl methyl[2-(methylamino)ethyl]carbamate, and ethyl {2-[(aminoacetyl)(methyl)amino]ethyl}methylcarbamate

CO[C@@H]1[C@H](O)CC[C@]2(CO2)[C@H]1[C@@]1(C)O[C@@H]1CC=C(C)C [Fumagillol]
A549 IC50 Average [3]: 30.1 ng/mL
HCT116 IC50 Average [4]: 45.8 ng/mL
HUVEC IC50 Average [5]: 18.9 ng/mL
A549/HUVEC IC50 ratio [6]: 1.59

— patent US10722532B2, “Polymer-conjugated METAP2 inhibitors, and therapeutic methods of use thereof” (SynDevRx, Inc., priority 2010, dated 2020)
